Results published in patent publication US20020137929A1, “1 - (3-heterocyclylphenyl) isothiourea, -isourea, -guanidine and -amidine herbicidal agents” (Intellectual Property Department, BASF Aktiengesellschaft, priority 1998, published 2002).

Columns and labels:
[1] = system: IPOHE (Morningglory, Ivyleaf); test: Preemergence herbicidal evaluation; assay type: in vivo, Ipomoea hederacea; conditions: rated 4-5 weeks after treatment
How it was run: (§1)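 Each species is sown separately in potting soil over roughly an inch of soil before any emergence. The soil surface then receives an aqueous acetone spray delivering about 0.0156 to 0.500 kg/ha of compound. After four to five weeks, injury is scored from 0 to 9 relative to a control.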

[2] = system: ABUTH (Velvetleaf); test: Postemergence herbicidal evaluation; assay type: in vivo, Abutilon theophrasti; conditions: postemergence
How it was run: (§2)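 Young plants, roughly two weeks from seeding, receive the active ingredient as a sprayed dispersion (acetone/water 50/50, 0.5% TWEEN 20) at 40 psi. Doses span about 0.0156 to 0.500 kg/ha. A visual score from 0 to 9 compares treated with control plants four to five weeks on.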

[3] = system: CHEAL (Lambsquarters, Common); test: Preemergence herbicidal evaluation; assay type: in vivo, Chenopodium album; conditions: rated 4-5 weeks after treatment
How it was run: as §1

[4] = system: ORYSAT (Rice, Tebonnet); test: Postemergence herbicidal evaluation; assay type: in vivo, Oryza sativa, (L.) Tebonnet; conditions: postemergence
How it was run: as §2

[5] = system: CYPSE (Flatsedge); test: Postemergence weed control under flooded paddy conditions; assay type: in vivo, Cyperus serotinus; conditions: postemergence weeds, rated 3 to 4 weeks after treatment
How it was run: (§3)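 Injury ratings (0–9 scale covering stand, vigor, malformation, size, chlorosis and overall appearance versus control) were made three to four weeks after treatment. Test material, about 0.0313 to 0.500 kg/ha a.i. in 50/50 v/v aqueous/acetone, was added to flood water 1.5 to 3 cm deep over 3 to 5 cm weeds and 1.5 to 2.5 leaf rice.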

[6] = system: ECHCG (Barnyardgrass); test: Postemergence herbicidal evaluation; assay type: in vivo, Echinochloa crus-galli; conditions: postemergence
How it was run: as §2

[7] = system: CYPIR (Rice Flatsedge); test: Postemergence weed control under flooded paddy conditions; assay type: in vivo, Cyperus iria; conditions: postemergence weeds, rated 3 to 4 weeks after treatment
How it was run: as §3

[8] = system: TRZAWR (Wheat, Winter, cv Riband); test: Preemergence herbicidal evaluation; assay type: in vivo, Triticum aestivum; conditions: rated 4-5 weeks after treatment
How it was run: as §1

[9] = system: ECHCG (Barnyardgrass); test: Preemergence herbicidal evaluation; assay type: in vivo, Echinochloa crus-galli; conditions: rated 4-5 weeks after treatment
How it was run: as §1

[10] = system: CHEAL (Lambsquarters, Common); test: Postemergence herbicidal evaluation; assay type: in vivo, Chenopodium album; conditions: postemergence
How it was run: as §2

[11] = system: ZEAMX (Corn, Field); test: Preemergence herbicidal evaluation; assay type: in vivo, Zea mays; conditions: rated 4-5 weeks after treatment
How it was run: as §1

[12] = system: GLXMAW (Soybean, Williams); test: Preemergence herbicidal evaluation; assay type: in vivo, Glycine max, (L.) Merr. cv Williams; conditions: rated 4-5 weeks after treatment
How it was run: as §1

[13] = system: IPOHE (Morningglory, Ivyleaf); test: Postemergence herbicidal evaluation; assay type: in vivo, Ipomoea hederacea; conditions: postemergence
How it was run: as §2

[14] = system: ZEAMX (Corn, Field); test: Postemergence herbicidal evaluation; assay type: in vivo, Zea mays; conditions: postemergence
How it was run: as §2

[15] = system: CASOB (Sicklepod); test: Preemergence herbicidal evaluation; assay type: in vivo, Cassia obtusifolia; conditions: rated 4-5 weeks after treatment
How it was run: as §1

[16] = system: SETVI (Foxtail, Green); test: Postemergence herbicidal evaluation; assay type: in vivo, Setaria viridis; conditions: postemergence
How it was run: as §2

[17] = system: ABUTH (Velvetleaf); test: Preemergence herbicidal evaluation; assay type: in vivo, Abutilon theophrasti; conditions: rated 4-5 weeks after treatment
How it was run: as §1

CC(C)C[C@@H](C(=O)O)N1C(=O)CSC1=Nc1cc(-n2c(=O)cc(C(F)(F)F)n(C)c2=O)c(F)cc1Cl [Compound 71, α-Isobutyl-2-{{2-chloro-5-[3,6-dihydro-3-methyl-2,6-dioxo-4-(trifluoromethyl)-1(2H)-pyrimidinyl]-4-fluorophenyl}imino}-4-oxo-3-thiazolidineacetic acid, L-]
6.0: CHEAL herbicidal rating ([10]; rate 0.0158 kg/ha)
1.0: Preemergence herbicidal rating TRZAWR ([8]; rate 0.1250 kg/ha) | Preemergence herbicidal rating GLXMAW ([12]; rate 0.0156 kg/ha) | Preemergence herbicidal rating GLXMAW ([12]; rate 0.0625 kg/ha) | Preemergence herbicidal rating ABUTH ([17]; rate 0.0156 kg/ha)
2.0: Preemergence herbicidal rating ECHCG ([9]; rate 0.1250 kg/ha)
7.0: Herbicidal rating CYPIR ([7]; Rate 0.2500 kg/ha) | CHEAL herbicidal rating ([10]; rate 0.0315 kg/ha) | ZEAMX herbicidal rating ([14]; rate 0.0630 kg/ha) | Preemergence herbicidal rating CASOB ([15]; rate 0.1250 kg/ha) | SETVI herbicidal rating ([16]; rate 0.0315 kg/ha)
0.0: Preemergence herbicidal rating IPOHE ([1]; rate 0.0156 kg/ha) | Preemergence herbicidal rating IPOHE ([1]; rate 0.0313 kg/ha) | Preemergence herbicidal rating IPOHE ([1]; rate 0.0625 kg/ha) | Preemergence herbicidal rating TRZAWR ([8]; rate 0.0156 kg/ha) | Preemergence herbicidal rating TRZAWR ([8]; rate 0.0313 kg/ha) | Preemergence herbicidal rating TRZAWR ([8]; rate 0.0625 kg/ha) | Preemergence herbicidal rating ECHCG ([9]; rate 0.0156 kg/ha) | Preemergence herbicidal rating ECHCG ([9]; rate 0.0313 kg/ha) | Preemergence herbicidal rating ECHCG ([9]; rate 0.0625 kg/ha) | Preemergence herbicidal rating ZEAMX ([11]; rate 0.0156 kg/ha) | Preemergence herbicidal rating ZEAMX ([11]; rate 0.0313 kg/ha) | Preemergence herbicidal rating ZEAMX ([11]; rate 0.0625 kg/ha) | Preemergence herbicidal rating GLXMAW ([12]; rate 0.0313 kg/ha) | Preemergence herbicidal rating CASOB ([15]; rate 0.0156 kg/ha) | Preemergence herbicidal rating CASOB ([15]; rate 0.0313 kg/ha) | Preemergence herbicidal rating CASOB ([15]; rate 0.0625 kg/ha)
4.5: ORYSAT herbicidal rating ([4]; rate 0.0630 kg/ha)
3.0: Preemergence herbicidal rating CHEAL ([3]; rate 0.0156 kg/ha) | ORYSAT herbicidal rating ([4]; rate 0.0158 kg/ha) | Herbicidal rating CYPSE ([5]; Rate 0.1250 kg/ha) | Herbicidal rating CYPSE ([5]; Rate 0.2500 kg/ha) | Herbicidal rating CYPIR ([7]; Rate 0.1250 kg/ha) | Preemergence herbicidal rating TRZAWR ([8]; rate 0.2500 kg/ha) | Preemergence herbicidal rating ZEAMX ([11]; rate 0.1250 kg/ha) | Preemergence herbicidal rating ZEAMX ([11]; rate 0.2500 kg/ha) | Preemergence herbicidal rating GLXMAW ([12]; rate 0.1250 kg/ha)
5.0: ZEAMX herbicidal rating ([14]; rate 0.0158 kg/ha) | ZEAMX herbicidal rating ([14]; rate 0.0315 kg/ha)
4.0: ECHCG herbicidal rating ([6]; rate 0.0158 kg/ha) | ECHCG herbicidal rating ([6]; rate 0.0315 kg/ha) | ECHCG herbicidal rating ([6]; rate 0.0630 kg/ha) | Preemergence herbicidal rating ECHCG ([9]; rate 0.2500 kg/ha) | SETVI herbicidal rating ([16]; rate 0.0158 kg/ha)
3.5: ORYSAT herbicidal rating ([4]; rate 0.0315 kg/ha)
9.0: Preemergence herbicidal rating IPOHE ([1]; rate 0.1250 kg/ha) | Preemergence herbicidal rating IPOHE ([1]; rate 0.2500 kg/ha) | ABUTH herbicidal rating ([2]; rate 0.0158 kg/ha) | ABUTH herbicidal rating ([2]; rate 0.0315 kg/ha) | ABUTH herbicidal rating ([2]; rate 0.0630 kg/ha) | Preemergence herbicidal rating CHEAL ([3]; rate 0.0313 kg/ha) | Preemergence herbicidal rating CHEAL ([3]; rate 0.0625 kg/ha) | Preemergence herbicidal rating CHEAL ([3]; rate 0.1250 kg/ha) | Preemergence herbicidal rating CHEAL ([3]; rate 0.2500 kg/ha) | IPOHE herbicidal rating ([13]; rate 0.0158 kg/ha) | IPOHE herbicidal rating ([13]; rate 0.0315 kg/ha) | IPOHE herbicidal rating ([13]; rate 0.0630 kg/ha) | Preemergence herbicidal rating CASOB ([15]; rate 0.2500 kg/ha) | SETVI herbicidal rating ([16]; rate 0.0630 kg/ha) | Preemergence herbicidal rating ABUTH ([17]; rate 0.0313 kg/ha) | Preemergence herbicidal rating ABUTH ([17]; rate 0.0625 kg/ha) | Preemergence herbicidal rating ABUTH ([17]; rate 0.1250 kg/ha) | Preemergence herbicidal rating ABUTH ([17]; rate 0.2500 kg/ha)
